Test results taken from PubChem BioAssay (NCI).
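Cultured in 96-well plates, cells were exposed to test compound for 48 hours across five concentrations. The concentration for full growth arrest is given as TGI.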

How the values were obtained:
Experiment in all cases: NCI tumour cell line growth inhibition, 48 h
SW-620 colon = system: SW-620 colon
NCI/ADR-RES ovarian = system: NCI/ADR-RES ovarian
HOP-92 NSCLC = system: HOP-92 NSCLC
UACC-62 melanoma = system: UACC-62 melanoma
OVCAR-4 ovarian = system: OVCAR-4 ovarian
LOX IMVI melanoma = system: LOX IMVI melanoma
DMS 114 small cell lung = system: DMS 114 small cell lung
SK-MEL-28 melanoma = system: SK-MEL-28 melanoma
SF-539 CNS = system: SF-539 CNS
UO-31 renal = system: UO-31 renal
A498 renal = system: A498 renal
DMS 273 small cell lung = system: DMS 273 small cell lung
NCI-H522 lung = system: NCI-H522 lung
HCC-2998 colon = system: HCC-2998 colon
SK-MEL-2 melanoma = system: SK-MEL-2 melanoma
EKVX NSCLC = system: EKVX NSCLC
HCT-15 colon = system: HCT-15 colon
MALME-3M melanoma = system: MALME-3M melanoma
OVCAR-3 ovarian = system: OVCAR-3 ovarian
CCRF-CEM leukemia = system: CCRF-CEM leukemia
SN12C renal = system: SN12C renal
SNB-78 CNS = system: SNB-78 CNS
XF 498 CNS = system: XF 498 CNS
NCI-H460 lung = system: NCI-H460 lung
IGROV1 ovarian = system: IGROV1 ovarian
CAKI-1 renal = system: CAKI-1 renal
SN12K1 renal = system: SN12K1 renal
P388 leukemia = system: P388 leukemia
SK-OV-3 ovarian = system: SK-OV-3 ovarian
OVCAR-5 ovarian = system: OVCAR-5 ovarian
HCT-116 colon = system: HCT-116 colon
NCI-H23 lung = system: NCI-H23 lung
SK-MEL-5 melanoma = system: SK-MEL-5 melanoma
UACC-257 melanoma = system: UACC-257 melanoma
SF-295 CNS = system: SF-295 CNS
SNB-19 CNS = system: SNB-19 CNS
A549 NSCLC = system: A549 NSCLC
HT29 colon = system: HT29 colon
MCF7 breast = system: MCF7 breast
RXF 393 renal = system: RXF 393 renal
OVCAR-8 ovarian = system: OVCAR-8 ovarian
P388/ADR leukemia = system: P388/ADR leukemia
KM20L2 colon = system: KM20L2 colon
COLO 205 colon = system: COLO 205 colon
MOLT-4 leukemia = system: MOLT-4 leukemia
HOP-18 NSCLC = system: HOP-18 NSCLC
SF-268 CNS = system: SF-268 CNS
M19-MEL melanoma = system: M19-MEL melanoma
SNB-75 CNS = system: SNB-75 CNS
U251 CNS = system: U251 CNS
KM12 colon = system: KM12 colon
HOP-62 NSCLC = system: HOP-62 NSCLC
RPMI-8226 leukemia = system: RPMI-8226 leukemia
K-562 leukemia = system: K-562 leukemia
HL-60(TB) leukemia = system: HL-60(TB) leukemia
DLD-1 colon = system: DLD-1 colon
NCI-H226 lung = system: NCI-H226 lung
RXF-631 renal = system: RXF-631 renal
TK-10 renal = system: TK-10 renal
786-0 renal = system: 786-0 renal
M14 melanoma = system: M14 melanoma
LXFL 529 NSCLC = system: LXFL 529 NSCLC
ACHN renal = system: ACHN renal
SR leukemia = system: SR leukemia

## CN(C)C(=O)N(CCCl)N=O
SW-620 colon
  TGI: > 100 µM
NCI/ADR-RES ovarian
  TGI: > 100 µM
HOP-92 NSCLC
  TGI: > 100 µM
UACC-62 melanoma
  TGI: > 100 µM
OVCAR-4 ovarian
  TGI: > 100 µM
LOX IMVI melanoma
  TGI: > 100 µM
DMS 114 small cell lung
  TGI: > 100 µM
SK-MEL-28 melanoma
  TGI: > 100 µM
SF-539 CNS
  TGI: > 100 µM
UO-31 renal
  TGI: > 100 µM
A498 renal
  TGI: > 100 µM
DMS 273 small cell lung
  TGI: > 100 µM
NCI-H522 lung
  TGI: > 100 µM
HCC-2998 colon
  TGI: > 100 µM
SK-MEL-2 melanoma
  TGI: > 100 µM
EKVX NSCLC
  TGI: > 100 µM
HCT-15 colon
  TGI: > 100 µM
MALME-3M melanoma
  TGI: > 100 µM
OVCAR-3 ovarian
  TGI: > 100 µM
CCRF-CEM leukemia
  TGI: > 100 µM
SN12C renal
  TGI: > 100 µM
SNB-78 CNS
  TGI: > 100 µM
XF 498 CNS
  TGI: > 100 µM
NCI-H460 lung
  TGI: > 100 µM
IGROV1 ovarian
  TGI: > 100 µM
CAKI-1 renal
  TGI: > 100 µM
SN12K1 renal
  TGI: > 100 µM
P388 leukemia
  TGI: > 100 µM
SK-OV-3 ovarian
  TGI: > 100 µM
OVCAR-5 ovarian
  TGI: > 100 µM
HCT-116 colon
  TGI: > 100 µM
NCI-H23 lung
  TGI: > 100 µM
SK-MEL-5 melanoma
  TGI: > 100 µM
UACC-257 melanoma
  TGI: > 100 µM
SF-295 CNS
  TGI: > 100 µM
SNB-19 CNS
  TGI: > 100 µM
A549 NSCLC
  TGI: > 100 µM
HT29 colon
  TGI: > 100 µM
MCF7 breast
  TGI: > 100 µM
RXF 393 renal
  TGI: > 100 µM
OVCAR-8 ovarian
  TGI: > 100 µM
P388/ADR leukemia
  TGI: > 100 µM
KM20L2 colon
  TGI: > 100 µM
COLO 205 colon
  TGI: > 100 µM
MOLT-4 leukemia
  TGI: > 100 µM
HOP-18 NSCLC
  TGI: > 100 µM
SF-268 CNS
  TGI: > 100 µM
M19-MEL melanoma
  TGI: > 100 µM
SNB-75 CNS
  TGI: > 100 µM
U251 CNS
  TGI: > 100 µM
KM12 colon
  TGI: > 100 µM
HOP-62 NSCLC
  TGI: > 100 µM
RPMI-8226 leukemia
  TGI: > 100 µM
K-562 leukemia
  TGI: > 100 µM
HL-60(TB) leukemia
  TGI: > 100 µM
DLD-1 colon
  TGI: > 100 µM

## O=c1[nH]c2nc3ccccc3n2c(O)c1-c1ccccc1
NCI-H226 lung
  TGI: > 100 µM
SW-620 colon
  TGI: > 100 µM
HOP-92 NSCLC
  TGI: > 100 µM
UACC-62 melanoma
  TGI: > 100 µM
OVCAR-4 ovarian
  TGI: > 100 µM
LOX IMVI melanoma
  TGI: > 100 µM
RXF-631 renal
  TGI: > 100 µM
TK-10 renal
  TGI: > 100 µM
DMS 114 small cell lung
  TGI: > 100 µM
SK-MEL-28 melanoma
  TGI: > 100 µM
SF-539 CNS
  TGI: > 100 µM
UO-31 renal
  TGI: > 100 µM
A498 renal
  TGI: > 100 µM
DMS 273 small cell lung
  TGI: > 100 µM
NCI-H522 lung
  TGI: > 100 µM
HCC-2998 colon
  TGI: > 100 µM
SK-MEL-2 melanoma
  TGI: > 100 µM
EKVX NSCLC
  TGI: > 100 µM
HCT-15 colon
  TGI: > 100 µM
MALME-3M melanoma
  TGI: > 100 µM
OVCAR-3 ovarian
  TGI: > 100 µM
786-0 renal
  TGI: > 100 µM
CCRF-CEM leukemia
  TGI: > 100 µM
SN12C renal
  TGI: > 100 µM
SNB-78 CNS
  TGI: > 100 µM
XF 498 CNS
  TGI: > 100 µM
M14 melanoma
  TGI: > 100 µM
NCI-H460 lung
  TGI: > 100 µM
IGROV1 ovarian
  TGI: > 100 µM
CAKI-1 renal
  TGI: > 100 µM
SK-OV-3 ovarian
  TGI: > 100 µM
OVCAR-5 ovarian
  TGI: > 100 µM
HCT-116 colon
  TGI: > 100 µM
LXFL 529 NSCLC
  TGI: > 100 µM
NCI-H23 lung
  TGI: > 100 µM
SK-MEL-5 melanoma
  TGI: > 100 µM
UACC-257 melanoma
  TGI: > 100 µM
SF-295 CNS
  TGI: > 100 µM
SNB-19 CNS
  TGI: > 100 µM
A549 NSCLC
  TGI: > 100 µM
HT29 colon
  TGI: > 100 µM
RXF 393 renal
  TGI: > 100 µM
OVCAR-8 ovarian
  TGI: > 100 µM
KM20L2 colon
  TGI: > 100 µM
COLO 205 colon
  TGI: > 100 µM
MOLT-4 leukemia
  TGI: > 100 µM
HOP-18 NSCLC
  TGI: > 100 µM
ACHN renal
  TGI: > 100 µM
SF-268 CNS
  TGI: > 100 µM
M19-MEL melanoma
  TGI: > 100 µM
SNB-75 CNS
  TGI: > 100 µM
U251 CNS
  TGI: > 100 µM
KM12 colon
  TGI: > 100 µM
HOP-62 NSCLC
  TGI: > 100 µM
RPMI-8226 leukemia
  TGI: > 100 µM
SR leukemia
  TGI: > 100 µM
K-562 leukemia
  TGI: > 100 µM
HL-60(TB) leukemia
  TGI: > 100 µM
DLD-1 colon
  TGI: > 100 µM

## NC1CCCCC1
SW-620 colon
  TGI: > 562 µM
NCI/ADR-RES ovarian
  TGI: > 562 µM
HOP-92 NSCLC
  TGI: > 562 µM
UACC-62 melanoma
  TGI: > 562 µM
OVCAR-4 ovarian
  TGI: > 562 µM
LOX IMVI melanoma
  TGI: > 562 µM
DMS 114 small cell lung
  TGI: > 56.2 µM
SK-MEL-28 melanoma
  TGI: > 562 µM
SF-539 CNS
  TGI: 418 µM
A498 renal
  TGI: > 562 µM
DMS 273 small cell lung
  TGI: > 562 µM
NCI-H522 lung
  TGI: > 562 µM
HCC-2998 colon
  TGI: > 562 µM
SK-MEL-2 melanoma
  TGI: > 562 µM
EKVX NSCLC
  TGI: > 562 µM
HCT-15 colon
  TGI: > 562 µM
MALME-3M melanoma
  TGI: > 562 µM
OVCAR-3 ovarian
  TGI: > 562 µM
CCRF-CEM leukemia
  TGI: > 562 µM
SN12C renal
  TGI: > 562 µM
SNB-78 CNS
  TGI: > 562 µM
NCI-H460 lung
  TGI: > 562 µM
IGROV1 ovarian
  TGI: > 562 µM
SN12K1 renal
  TGI: > 562 µM
P388 leukemia
  TGI: 243 µM
OVCAR-5 ovarian
  TGI: > 562 µM
HCT-116 colon
  TGI: > 562 µM
NCI-H23 lung
  TGI: > 562 µM
SK-MEL-5 melanoma
  TGI: > 562 µM
UACC-257 melanoma
  TGI: > 562 µM
SNB-19 CNS
  TGI: > 562 µM
A549 NSCLC
  TGI: > 562 µM
HT29 colon
  TGI: > 562 µM
MCF7 breast
  TGI: > 562 µM
RXF 393 renal
  TGI: > 562 µM
OVCAR-8 ovarian
  TGI: > 562 µM
KM20L2 colon
  TGI: > 562 µM
COLO 205 colon
  TGI: > 56.2 µM
MOLT-4 leukemia
  TGI: > 562 µM
HOP-18 NSCLC
  TGI: < 0.0562 µM
SF-268 CNS
  TGI: > 562 µM
M19-MEL melanoma
  TGI: > 562 µM
SNB-75 CNS
  TGI: > 562 µM
U251 CNS
  TGI: > 562 µM
KM12 colon
  TGI: > 562 µM
HOP-62 NSCLC
  TGI: > 562 µM
RPMI-8226 leukemia
  TGI: > 562 µM
K-562 leukemia
  TGI: > 562 µM
HL-60(TB) leukemia
  TGI: 380 µM
DLD-1 colon
  TGI: > 562 µM
